Values of other authors as cited in patent US20070092586A1, “Compositions and methods for the administration psychotropic drugs which modulate body weight” (Alamo Pharmaceuticals, priority 2005, published 2007).

Columns and labels:
[1] = lithium maintenance therapy; J. Clin. Psychopharmacol. 1988

Row | patients with weight gains of over 10 kg [1] [%] | SMILES | increase in body weight (mean) (59 patients taking clozapine for an unstated period, P<0.05, Gerlach et al. 1989) [kg] | mean increase in body weight (over 21 months, patients who responded to clozapine and remained clinically stable, Jalenques et al. 1996) [kg]
1 | – | CN1CCN(C2=Nc3cc(Cl)ccc3Nc3ccccc32)CC1 [clozapine, 8-chloro-11-(4-methyl-1-piperazinyl)-5H-dibenzo[b,e] [1,4] diazepine] | 2.8 | 12.4
2 | 20 | O=C([O-])[O-].[Li+].[Li+] [lithium] | – | –
